Measurements published in patent publication US20160333006A1, “ARYL LACTA KINASE INHIBITORS” (Bristol-Myers Squibb Company, priority 2014, published 2016).

Target: T1, GST-Xa-hAAK1 (Homo sapiens, UniProt Q2M2I8)
T1 construct: made in house
Test: AAK1 kinase assay
Type: biochemical
Conditions: ATP 22 μM
Method: The assays were performed in U-bottom 384-well plates. […] The reactions were initiated by the combination of bacterially expressed, GST-Xa-hAAK1 with substrates and test compounds. The reactions were incubated at room temperature for 3 hours and terminated by adding 60 μl of 35 mM EDTA buffer to each sample. The reactions were analyzed on the Caliper LabChip 3000 (Caliper, Hopkinton, Mass.) by electrophoretic separation of the fluorescent substrate and phosphorylated product. […] Compounds were dissolved at 10 mM in dimethylsulfoxide (DMSO) and evaluated at eleven concentrations. IC50 values were derived by non-linear regression analysis.

T1 sequence (Q2M2I8 whole entry): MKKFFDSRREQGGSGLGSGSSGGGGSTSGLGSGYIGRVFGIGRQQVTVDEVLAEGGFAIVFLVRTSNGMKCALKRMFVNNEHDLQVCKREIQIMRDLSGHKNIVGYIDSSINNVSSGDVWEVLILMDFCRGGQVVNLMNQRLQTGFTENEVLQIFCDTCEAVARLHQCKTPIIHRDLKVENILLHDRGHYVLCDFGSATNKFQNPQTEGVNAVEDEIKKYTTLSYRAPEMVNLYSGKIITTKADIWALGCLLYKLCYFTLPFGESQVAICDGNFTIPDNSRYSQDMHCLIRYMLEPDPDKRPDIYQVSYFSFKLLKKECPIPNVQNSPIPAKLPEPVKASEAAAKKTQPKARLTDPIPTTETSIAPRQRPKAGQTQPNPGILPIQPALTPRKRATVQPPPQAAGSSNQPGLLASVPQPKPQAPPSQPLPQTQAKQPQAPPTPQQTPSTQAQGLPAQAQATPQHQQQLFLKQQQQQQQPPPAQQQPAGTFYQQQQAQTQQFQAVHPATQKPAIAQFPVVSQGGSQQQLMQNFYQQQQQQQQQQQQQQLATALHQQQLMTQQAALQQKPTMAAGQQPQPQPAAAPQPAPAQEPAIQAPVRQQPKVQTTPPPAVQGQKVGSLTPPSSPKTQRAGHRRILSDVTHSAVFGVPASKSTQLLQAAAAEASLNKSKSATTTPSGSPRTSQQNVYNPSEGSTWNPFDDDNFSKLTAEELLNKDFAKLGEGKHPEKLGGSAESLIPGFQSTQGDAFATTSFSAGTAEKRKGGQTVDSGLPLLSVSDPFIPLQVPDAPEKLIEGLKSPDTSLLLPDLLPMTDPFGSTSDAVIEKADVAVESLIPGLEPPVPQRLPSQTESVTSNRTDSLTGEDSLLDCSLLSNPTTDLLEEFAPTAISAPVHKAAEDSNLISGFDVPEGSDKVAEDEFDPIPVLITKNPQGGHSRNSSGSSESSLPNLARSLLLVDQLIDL

| IC50 (given as IC50 range) | IC50 (3 hours at room temperature) | SMILES |
| --- | --- | --- |
| 1 to 10 nM | – | Cc1nccc2c1c(=O)n(C)c1c(F)c(OC[C@@H](N)CC(C)C)c(Cl)cc21 [Example 107, (S)-8-((2-amino-4-methylpentyl)oxy)-9-chloro-7-fluoro-4,6-dimethylbenzo[c][2,7]naphthyridin-5(6H)-one] |
| 1 to 10 nM | – | Cc1nccc2c1c(=O)n(C)c1cc(OC[C@@H](N)CC(C)C)c(C3CC3)cc21 [Example 125, (S)-8-((2-amino-4-methylpentyl)oxy)-9-cyclopropyl-4,6-dimethylbenzo[c][2,7]naphthyridin-5(6H)-one] |
| 10 to 100 nM | – | Cc1nccc2c1c(=O)n(C)c1cc(OCC(N)CCC(F)(F)F)ccc21 (stereo not drawn) [Example 123, 8-((2-amino-5,5,5-trifluoropentyl)oxy)-4,6-dimethylbenzo[c][2,7]naphthyridin-5(6H)-one] |
| 100 to 2000 nM | – | COc1ccc2c3ccnc(C)c3c(=O)n(C)c2c1 [Example 144, 8-methoxy-4,6-dimethylbenzo[c][2,7]naphthyridin-5(6H)-one] |
| 10 to 100 nM | – | CC(C)CC(C)COc1cc2c(cc1Br)c1ccncc1c(=O)n2C (stereo not drawn) [Example 154, 9-bromo-8-((2,4-dimethylpentyl)oxy)-6-methylbenzo[c][2,7]naphthyridin-5(6H)-one] |
| < 1 nM | – | Cc1nccc2c1c(=O)n(C)c1cc(OCC(N)CCC(F)(F)F)c(Cl)cc21 (stereo not drawn) [Example 124, 8-((2-amino-5,5,5-trifluoropentyl)oxy)-9-chloro-4,6-dimethylbenzo[c][2,7]naphthyridin-5(6H)-one] |
| 10 to 100 nM | – | Cc1nccc2c1c(=O)n(C)c1c(F)c(OC[C@@H](N)CC(C)C)c(Br)cc21 [Example 134, (S)-8-((2-amino-4-methylpentyl)oxy)-9-bromo-7-fluoro-4,6-dimethylbenzo[c][2,7]naphthyridin-5(6H)-one] |
| 100 to 2000 nM | – | Cc1nccc2c1c(=O)n(C)c1cc(OCC(C)CC(C)C)ccc21 (stereo not drawn) [Example 155, 8-((2,4-dimethylpentyl)oxy)-4,6-dimethylbenzo[c][2,7]naphthyridin-5(6H)-one] |
| 10 to 100 nM | – | Cc1nccc2c1c(=O)n(C)c1cc(OCCCC(C)C)ccc21 [Example 156, 4,6-dimethyl-8-((4-methylpentyl)oxy)benzo[c][2,7]naphthyridin-5(6H)-one] |
| 10 to 100 nM | – | Cc1nccc2c1c(=O)n(C)c1cc(OCC(O)CNC(C)C)c(Br)cc21 (stereo not drawn) [Example 149, 9-bromo-8-(2-hydroxy-3-(isopropylamino)propoxy)-4,6-dimethylbenzo[c][2,7]naphthyridin-5(6H)-one] |
| 10 to 100 nM | – | CC(C)CC(C)COc1ccc2c3ccncc3c(=O)n(C)c2c1 (stereo not drawn) [Example 157, 8-((2,4-dimethylpentyl)oxy)-6-methylbenzo[c][2,7]naphthyridin-5(6H)-one] |
| 10 to 100 nM | – | CC(C)CC(C)COc1ccc2c3ccncc3c(=O)n(C)c2c1 (stereo not drawn) [Example 158, 8-((2,4-dimethylpentyl)oxy)-6-methylbenzo[c][2,7]naphthyridin-5(6H)-one] |
| 10 to 100 nM | – | CC(C)CCCOc1ccc2c3ccncc3c(=O)n(C)c2c1 [Example 151, 6-methyl-8-((4-methylpentyl)oxy)benzo[c][2,7]naphthyridin-5(6H)-one] |
| < 1 nM | – | Cc1nccc2c1c(=O)n(CCO)c1cc(OC[C@@H](N)CC(C)C)c(Cl)cc21 [Example 132, (S)-8-((2-amino-4-methylpentyl)oxy)-9-chloro-6-(2-hydroxyethyl)-4-methylbenzo[c][2,7]naphthyridin-5(6H)-one] |
| 1 to 10 nM | – | Cn1c(=O)c2cnccc2c2ccc(OCC(N)CCC(F)(F)F)cc21 (stereo not drawn) [Example 112, 8-((2-amino-5,5,5-trifluoropentyl)oxy)-6-methylbenzo[c][2,7]naphthyridin-5(6H)-one] |
| – | 1330 nM | Cc1nccc2c1c(=O)n(C)c1cc(OCC(O)CNC(C)C)ccc21 (stereo not drawn) [Example 147, 8-(2-hydroxy-3-(isopropylamino)propoxy)-4,6-dimethylbenzo[c][2,7]naphthyridin-5(6H)-one] |
| 1 to 10 nM | – | Cn1c(=O)c2cnccc2c2ccc(OCC(N)CCC(F)(F)F)cc21 (stereo not drawn) [Example 111, 8-((2-amino-5,5,5-trifluoropentyl)oxy)-6-methylbenzo[c][2,7]naphthyridin-5(6H)-one] |
| < 1 nM | – | Cc1nccc2c1c(=O)n(C)c1cc(OCC(N)CCC(F)(F)F)c(Br)cc21 (stereo not drawn) [Example 128, 8-((2-amino-5,5,5-trifluoropentyl)oxy)-9-bromo-4,6-dimethylbenzo[c][2,7]naphthyridin-5(6H)-one] |
| 10 to 100 nM | – | Cc1nccc2c1c(=O)n(C)c1cc(OC[C@@H](O)CC(C)C)ccc21 [Example 152, (S)-8-((2-hydroxy-4-methylpentyl)oxy)-4,6-dimethylbenzo[c][2,7]naphthyridin-5(6H)-one] |
| 100 to 2000 nM | – | CC(C)NCC(O)COc1ccc2c3ccncc3c(=O)n(C)c2c1 (stereo not drawn) [Example 146, 8-(2-hydroxy-3-(isopropylamino)propoxy)-6-methylbenzo[c][2,7]naphthyridin-5(6H)-one] |
| 10 to 100 nM | – | COCCn1c(=O)c2c(C)nccc2c2cc(Br)c(OC[C@@H](N)CC(C)C)cc21 [Example 131, (S)-8-((2-amino-4-methylpentyl)oxy)-9-bromo-6-(2-methoxyethyl)-4-methylbenzo[c][2,7]naphthyridin-5(6H)-one] |

Continued, compound first:

| SMILES | IC50 (given as IC50 range) | IC50 (3 hours at room temperature) |
| --- | --- | --- |
| Cc1nccc2c1c(=O)n(C)c1cc(OCC(N)CC(C)C(F)(F)F)ccc21 (single isomer, unassigned) [Example 87] | 1 to 10 nM | – |
| COc1cncc2c(=O)n(C)c3cc(OC[C@@H](N)CC(C)C)ccc3c12 [Example 98, (S)-8-((2-amino-4-methylpentyl)oxy)-1-methoxy-6-methylbenzo[c][2,7]naphthyridin-5(6H)-one] | 100 to 2000 nM | – |
| Cc1cc2c3ccncc3c(=O)n(C)c2cc1OC[C@@H](N)CC(C)C [Example 4, (S)-8-((2-amino-4-methylpentyl)oxy)-6,9-dimethylbenzo[c][2,7]naphthyridin-5(6H)-one] | 1 to 10 nM | – |
| COC(=O)c1cc2c3ccnc(C)c3c(=O)n(C)c2cc1OC[C@@H](N)CC(C)C [Example 84, (S)-methyl 8-((2-amino-4-methylpentyl)oxy)-4,6-dimethyl-5-oxo-5,6-dihydrobenzo[c][2,7]naphthyridine-9-carboxylate] | 1 to 10 nM | – |
| CC(C)C[C@H](N)COc1cc2c(cc1-c1ccc(F)cc1)c1ccncc1c(=O)n2C [Example 51, (S)-8-((2-amino-4-methylpentyl)oxy)-9-(4-fluorophenyl)-6 methylbenzo[c][2,7]naphthyridin-5(6H)-one] | 100 to 2000 nM | – |
| Cc1nccc2c1c(=O)[nH]c1cc(OC[C@@H](N)CC(C)C)ccc12 [Example 77, (S)-8-(2-amino-4-methylpentyloxy)-4-methylbenzo[c][2,7]naphthyridin-5(6H)-one] | 1 to 10 nM | – |
| Cn1c(=O)c2cnccc2c2ccc(OCC(N)CC(F)(F)F)cc21 (single isomer, unassigned) [Example 135, 8-(2-amino-4,4,4-trifluorobutoxy)-6-methylbenzo[c][2,7]naphthyridin-5(6H)-one] | 10 to 100 nM | – |
| COc1c(OC[C@@H](N)CC(C)C)ccc2c1[nH]c(=O)c1c(C)nccc12 [Example 99, (S)-8-(2-amino-4-methylpentyloxy)-7-methoxy-4-methylbenzo[c][2,7]naphthyridin-5(6H)-one] | 100 to 2000 nM | – |
| CC(C)C[C@H](N)COc1cc2c(cc1C#N)c1ccncc1c(=O)n2C [Example 5, (S)-8-((2-amino-4-methylpentyl)oxy)-6-methyl-5-oxo-5,6 dihydrobenzo[c][2,7]naphthyridine-9-carbonitrile] | 1 to 10 nM | – |
| Cc1nccc2c1c(=O)n(C)c1cc(OC[C@@H](N)CC(C)C)c(C(N)=O)cc21 [Example 94, (S)-8-((2-amino-4-methylpentyl)oxy)-4,6-dimethyl-5-oxo-5,6-dihydrobenzo[c][2,7]naphthyridine-9-carboxamide] | 10 to 100 nM | – |
| CC(C)C[C@H](N)COc1cc2c(cc1Cl)c1ccncc1c(=O)n2C [Example 43, (S)-8-((2-amino-4-methylpentyl)oxy)-9-chloro-6-methylbenzo[c][2,7]naphthyridin-5(6H)-one] | 1 to 10 nM | – |
| COc1nccc2c1c(=O)n(C)c1cc(OC[C@@H](N)CC(C)C)ccc21 [Example 42, (S)-8-(2-amino-4-methylpentyloxy)-4-methoxy-6-methylbenzo[c][2,7]naphthyridin-5(6H)-one] | 100 to 2000 nM | – |
| Cc1nccc2c1c(=O)n(C)c1cc(OC[C@@H](N)CC(C)C)c(C(F)F)cc21 [Example 27, (S)-8-((2-amino-4-methylpentyl)oxy)-9-(difluoromethyl)-4,6-dimethylbenzo[c][2,7]naphthyridin-5(6H)-one] | < 1 nM | – |
| Cc1nccc2c1c(=O)[nH]c1cc(OC[C@@H](N)CC(C)C)c(Br)cc12 [Example 49, (S)-8-(2-amino-4-methylpentyloxy)-9-bromo-4-methylbenzo[c][2,7]naphthyridin-5(6H)-one] | 1 to 10 nM | – |
| CC(C)C[C@@H](COc1ccc2c3ccncc3c(=O)n(C)c2c1)N(C)C [Example 39, (S)-8-((2-(dimethylamino)-4-methylpentyl)oxy)-6-methylbenzo[c][2,7]naphthyridin-5(6H)-one] | 10 to 100 nM | – |
| Cc1nccc2c1c(=O)n(C)c1c(F)c(OC[C@@H](N)CC(C)C)ccc21 [Example 81, (S)-8-(2-amino-4-methylpentyloxy)-7-fluoro-4,6-dimethylbenzo[c][2,7]naphthyridin-5(6H)-one] | 100 to 2000 nM | – |
| CC(C)C[C@H](N)COc1ccc2c3c(F)cncc3c(=O)n(C)c2c1 [Example 85, (S)-8-((2-amino-4-methylpentyl)oxy)-1-fluoro-6-methylbenzo[c][2,7]naphthyridin-5(6H)-one] | 10 to 100 nM | – |
| Cc1nccc2c1c(=O)n(C)c1cc(OCC(N)CC(F)(F)F)c(Br)cc21 (stereo not drawn) [Example 137, 8-(2-amino-4,4,4-trifluorobutoxy)-9-bromo-4,6-dimethylbenzo[c][2,7]naphthyridin-5(6H)-one] | 1 to 10 nM | – |
